Experimental data reported in US11660293B2, “Substituted 2-azabicyclo[3.1.1]heptane and 2-azabicyclo[3.2.1]octane derivatives as orexin receptor antagonists” (Chronos Therapeutics Limited, priority 2017, dated 2023).

What was measured:
[1] = target: human Orexin type 2 receptors (Homo sapiens (Human), UniProt O43614); test: Scintillation Proximity Assay (SPA) binding assay, [3H]EMPA displacement, HEK-hOX2 membranes
Protocol: Scintillation Proximity Assay (SPA) Binding Assays
CHO cells stably transfected with human Orexin type 1 receptors (CHO-hOX1) or HEK-293 cells transiently transfected with human Orexin type 2 receptors (HEK-hOX2) were collected after 16 h induction with 5 mM sodium butyrate. The cell pellets were re-suspended, homogenized in 15 mM Tris/HCl pH=7.5, 1 mM EGTA, 0.3 mM EDTA, 2 mM MgCl2, protease inhibitors and centrifuged at 40,000 g (20 min, 4° C.). After re-suspension, homogenization and centrifugation as above, the final pellets were re-suspended in 75 mM Tris/HCl pH=7.5, 1 mM EGTA, 0.3 mM EDTA, 12.5 mM MgCl2, 250 mM Sucrose, protease inhibitors, divided into aliquots and frozen down at −80° C.
CHO-hOX1 cell membranes (6 μg ml^−1) or HEK-hOX2 membranes (8 μg ml^−1) were pre-coupled with 1.0 mg ml^−1 of Wheatgerm Agglutinin-coated Yttrium Silicate (YSi-WGA) SPA beads (Perkin Elmer) in buffer containing 25 mM HEPES pH=7.4, 1 mM CaCl2), 5 mM MgCl2, 0.01% (w/v) BSA, 0.02% (w/v) Pluronic F-127 by shaking at room temperature for 2.5-3 h.
(§1) The binding was performed in a final volume of 200 μl. 100 μl of hOX1 or hOX2 beads-membranes suspension were added to 100 μl of [^3H]SB-674042 or [^3H]EMPA solutions (radioligand concentration 2 nM final in the assay), into the 96-well Isoplates containing the 2 μl/well of compounds to be tested. Nonspecific binding was measured in the presence of 1 μM Almorexant. Assay plates were then incubated at room temperature for 3 h before being counted in a Microbeta scintillation counter (PerkinElmer).
Data were analysed by non-linear regression analysis using XLfit Software.

[2] = target: human Orexin type 1 receptors (Homo sapiens (Human), UniProt O43613); test: Scintillation Proximity Assay (SPA) binding assay, [3H]SB-674042 displacement, CHO-hOX1 membranes
Sequence of human Orexin type 1 receptors (O43613 whole entry): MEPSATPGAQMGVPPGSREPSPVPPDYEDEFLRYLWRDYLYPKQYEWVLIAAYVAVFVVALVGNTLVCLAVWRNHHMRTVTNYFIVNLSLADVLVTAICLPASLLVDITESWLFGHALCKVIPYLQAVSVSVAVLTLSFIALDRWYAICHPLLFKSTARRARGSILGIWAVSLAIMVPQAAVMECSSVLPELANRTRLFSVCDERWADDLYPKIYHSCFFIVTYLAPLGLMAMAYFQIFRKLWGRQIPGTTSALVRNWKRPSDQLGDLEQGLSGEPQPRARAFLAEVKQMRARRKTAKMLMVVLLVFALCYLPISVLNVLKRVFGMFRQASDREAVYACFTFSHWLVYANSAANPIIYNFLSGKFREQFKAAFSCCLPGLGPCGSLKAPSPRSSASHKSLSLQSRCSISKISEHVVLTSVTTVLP
Protocol: as §1, with “Scintillation Proximity Assay (SPA) Binding Assays CHO cells stably transfected with human Orexin type 1 receptors (CHO-hOX1) or HEK-293 cells transiently transfected with human Orexin type 2 receptors (HEK-hOX2) were collected after 16 h induction with 5 mM sodium butyrate. […] The” for “The”, “(PerkinElmer). Data were analysed by non-linear regression analysis using XLfit Software.” for “(PerkinElmer).”

Sequence of human Orexin type 2 receptors (O43614 whole entry): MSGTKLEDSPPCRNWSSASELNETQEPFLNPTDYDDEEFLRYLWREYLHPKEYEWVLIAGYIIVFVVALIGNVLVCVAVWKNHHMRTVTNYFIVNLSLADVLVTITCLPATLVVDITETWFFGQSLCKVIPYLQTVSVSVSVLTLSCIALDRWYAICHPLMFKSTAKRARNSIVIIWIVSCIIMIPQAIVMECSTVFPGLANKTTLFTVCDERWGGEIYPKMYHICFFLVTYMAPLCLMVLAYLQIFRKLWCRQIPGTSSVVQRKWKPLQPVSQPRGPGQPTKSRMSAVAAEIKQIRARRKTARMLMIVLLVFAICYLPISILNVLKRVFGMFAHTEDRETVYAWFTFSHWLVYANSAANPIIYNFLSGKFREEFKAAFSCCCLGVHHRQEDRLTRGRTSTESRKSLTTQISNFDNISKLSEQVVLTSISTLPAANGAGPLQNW

Row | SMILES | OX2 pKi (SPA binding) ([1]; Table 2, [3H]EMPA 2 nM) | OX1 pKi (SPA binding) ([2]; Table 2, [3H]SB-674042 2 nM) | OX2 pKi (SPA binding) ([1]; Table 1, [3H]EMPA 2 nM) | OX1 pKi (SPA binding) ([2]; Table 1, [3H]SB-674042 2 nM)
1 | Cc1nc(C(=O)N2C3CC(C3)[C@H](C)C2COc2ccc(F)cc2)c(-n2nccn2)s1 (mixture of isomers) [Example 126, trans-3-[(4-fluorophenoxy)methyl]-4-methyl-2-[2-methyl-5-(2H-1,2,3-triazol-2-yl)-1,3-thiazole-4-carbonyl]-2-azabicyclo[3.1.1]heptane] | 5.7 | 7.39 |  | 
2 | Cc1ccc(-c2nccs2)c(C(=O)N2C3CC(C3)[C@H](C)C2COc2ccc(F)cc2)n1 (mixture of isomers) [Example 106, trans-3-[(4-fluorophenoxy)methyl]-4-methyl-2-[6-methyl-3-(1,3-thiazol-2-yl)pyridine-2-carbonyl]-2-azabicyclo[3.1.1]heptane] |  |  | 6.12 | 8.16
3 | Cc1ccc(-n2nccn2)c(C(=O)N2C3CC(C3)[C@@H](C)C2COc2ccc(F)cc2)c1 (stereo partly drawn) [Example 97, cis-3-[(4-fluorophenoxy)methyl]-4-methyl-2-[5-methyl-2-(2H-1,2,3-triazol-2-yl)benzoyl]-2-azabicyclo[3.1.1]heptane] |  |  | 6.51 | 7.74
4 | C[C@@H]1C2CC(C2)N(C(=O)c2cc(Cl)ccc2-n2nccn2)C1CNc1cnc(C2CC2)cn1 (stereo partly shown) [Example 257] | 5.41 | 7.58 |  | 
5 | C[C@@H]1C2CC(C2)N(C(=O)c2cc(C#N)ccc2-n2nccn2)C1CNc1nc2ccc(F)cc2s1 (single isomer, unassigned) [Example 177, 3-[(3R,4S) or (3S,4R)-3-{[(6-fluoro-1,3-benzothiazol-2-yl)amino]methyl}-4-methyl-2-azabicyclo[3.1.1]heptane-2-carbonyl]-4-(2H-1,2,3-triazol-2-yl)benzonitrile] | 6.46 | 8.95 |  | 
6 | Cc1nc(C(=O)N2C3CC(C3)[C@@H](C)C2CNc2nc3ccc(F)cc3s2)c(-c2ncccn2)s1 (single isomer, unassigned) [Example 164, 6-fluoro-N-({(3R,4S) or (3S,4R)4-methyl-2-[2-methyl-5-(pyrimidin-2-yl)-1,3-thiazole-4-carbonyl]-2-azabicyclo[3.1.1]heptan-3-yl}methyl)-1,3-benzothiazol-2-amine] | 5.68 | 8.93 |  | 
7 | C[C@@H]1C2CC(C2)N(C(=O)c2cc(F)ccc2-n2nccn2)C1CNc1cnc(C(F)(F)F)cn1 (mixture of isomers) [Example 221, cis-N-({2-[5-fluoro-2-(2H-1,2,3-triazol-2-yl)benzoyl]-4-methyl-2-azabicyclo[3.1.1]heptan-3-yl}methyl)-5-(trifluoromethyl)pyrazin-2-amine] | 4.94 | 7.73 |  | 
8 | C[C@@H]1C2CC(C2)N(C(=O)c2cc(Cl)ccc2-n2nccn2)C1CNc1ncc(C2CC2)cn1 (stereo partly shown) [Example 259] | 5.32 | 7.66 |  | 
9 | Cc1cn(-c2ccc(C)nc2C(=O)N2C3CC(C3)[C@@H](C)C2COc2ccc(F)cc2)nn1 (mixture of isomers) [Example 146, cis-3-[(4-fluorophenoxy)methyl]-4-methyl-2-[6-methyl-3-(4-methyl-1H-1,2,3-triazol-1-yl)pyridine-2-carbonyl]-2-azabicyclo[3.1.1]heptane] | 5.53 | 6.88 |  | 
10 | Cc1nc(C(=O)N2C(COc3ccc(Br)cc3)CC3CC2C3)c(-c2ccccc2)s1 (stereo not shown) [Example 46] |  |  | 6.51 | 7.62
11 | Cc1nc(C(=O)N2[C@H]3C[C@H](C3)[C@@H](C)[C@H]2COc2ccc(F)cc2)c(-c2ccccn2)s1 (racemic) [Example 132, cis-3-[(4-fluorophenoxy)methyl]-4-methyl-2-[2-methyl-5-(pyridin-2-yl)-1,3-thiazole-4-carbonyl]-2-azabicyclo[3.1.1]heptane] | 6.72 | 7.97 |  | 
12 | Cc1ccc(-n2nccn2)c(C(=O)N2C3CC(C3)[C@H](C)C2CNc2nc3ccc(F)cc3s2)n1 (stereo partly shown) [Example 147] | 6.66 | 7.57 |  | 
13 | Cc1ccc(-c2ccccn2)c(C(=O)N2C3CC(C3)[C@@H](C)C2COc2ccc(F)cn2)n1 (mixture of isomers) [Example 131, cis-2′-(3-{[(-fluoropyridin-2-yl)oxy]methyl}-4-methyl-2-azabicyclo[3.1.1]heptane-2-carbonyl)-6′-methyl-2,3′-bipyridine] | 6.1 | 7.02 |  | 
14 | Cc1ccc(-n2nccn2)c(C(=O)N2C3CC(C3)[C@H](C)C2CNc2ncc3ccccc3n2)n1 (stereo partly drawn) [Example 149, trans-N-({4-methyl-2-[6-methyl-3-(2H-,2,3-triazol-2-yl)pyridine-2-carbonyl]-2-azabicyclo[3.1.1]heptan-3-yl}methyl)quinazolin-2-amine] | 5.72 | 6.82 |  | 
15 | Cc1ccc(-n2nccn2)c(C(=O)N2C3CC(C3)[C@@H](C)C2CNc2ccc(Cl)cn2)n1 (mixture of isomers) [Example 156, cis-5-chloro-N-({4-methyl-2-[6-methyl-3-(2H-1,2,3-triazol-2-yl)pyridine-2-carbonyl]-2-azabicyclo[3.1.1]heptan-3-yl}methyl)pyridin-2-amine] | 5.35 | 7.53 |  | 
16 | Cc1nc(C(=O)N2C3CC(C3)[C@@H](C)C2COc2ccc(F)cc2)c(-n2cccn2)s1 (mixture of isomers) [Example 141, cis-3-[(4-fluorophenoxy)methyl]-4-methyl-2-[2-methyl-5-(1H-pyrazol-1-yl)-1,3-thiazole-4-carbonyl]-2-azabicyclo[3.1.1]heptane] | 6.45 | 6.91 |  | 
17 | Cc1ccc(-n2nccn2)c(C(=O)N2C3CC(C3)[C@H](C)C2COc2ccc(Cl)cn2)n1 (stereo partly drawn) [Example 102, trans-3-{[(5-chloropyridin-2-yl)oxy]methyl}-4-methyl-2-[6-methyl-3-(2H-1,2,3-triazol-2-yl)pryidine-2-carbonyl]-2-azabicyclo[3.1.1]heptane] |  |  | 5.71 | 7.23
18 | Cc1ccc(-n2nccn2)c(C(=O)N2C3CC(C3)[C@@H](C)C2CNc2ncc3ccccc3n2)n1 (stereo partly drawn) [Example 155, cis-N-({4-methyl-2-[6-methyl-3-(2H-1,2,3-triazol-2-yl)pyridin-2-carbonyl]-2-azabicyclo[3.1.1]heptan-3-yl}methyl)quinazolin-2-amine] | 5.49 | 7.71 |  | 
19 | C[C@@H]1C2CC(C2)N(C(=O)c2ccc(Cl)cc2-n2nccn2)C1CNc1cnc(C(F)(F)F)cn1 (mixture of isomers) [Example 246, cis-N-({2-[4-chloro-2-(2H-1,2,3-triazol-2-yl)benzoyl]-4-methyl-2-azabicyclo[3.1.1]heptan-3-yl}methyl)-5-(trifluoromethyl)pyrazin-2-amine] | 5.61 | 7.57 |  | 
20 | C[C@@H]1C2CC(C2)N(C(=O)c2cc(Cl)ccc2-n2nccn2)C1CNc1nc2cccnc2o1 (single isomer, unassigned) [Example 244, N-{[(3R,4S) or (3S,4R)-2-[5-chloro-2-(2H-1,2,3-triazol-2-yl)benzoyl]-4-methyl-2-azabicyclo[3.1.1]heptan-3-yl]methyl}-[1,3]oxazolo[5,4-b]pyridin-2-amine] | 5.18 | 8.25 |  | 
